Data set [1] relates to human multiple myeloma cell line RPMI 8226. The experiment in a line: Cell level anti-tumor activity test, CCK-8, multiple myeloma cells. The following applies: RPMI-8226, 72 h. Type of data set: cell-based.
Experimental: According to the cell growth rate, the multiple myeloma cells in the logarithmic growth phase were inoculated into the 96-well culture plate at 100 μL/well, and then 1 μL/well of compound solution was added, and three replicate wells were set for each concentration, and the DMSO solvent control at corresponding concentration was also set.
CCK-8 staining method: after the drug was applied, 10 μL of CCK-8 solution was added to each well, and incubated at 37° C. for 3 h. The OD value at 450 nm and 690 nm was measured by microplate reader.
The inhibition rate (% Inhibiton) and activity (% Activity) of the test substance on the proliferation of multiple myeloma cells were calculated according to the following formula, wherein ODsample refers to the absorbance value of the administration hole (OD450-OD690). OD DMSO refers to the absorbance of the DMSO control well (OD450-OD690).
The logarithm of the concentration was plotted against the activity percentage (% Activity), and the fitted curve was calculated by nonlinear regression. The value of IC50 was calculated by using the GraphPad Prism5 software log(inhibitor) vs response—Variable slope parameter setting. Each set of experiments was repeated three times independently, while 3 replicate wells per concentration.
For data set [2] the following is noted: background, subsequent studies on 201410136196.7 compounds; cited from earlier work.
Data set [3] has as its system human myeloma RPMI 8226 NOD/SCID mouse xenografts. Briefly: Pharmacological experiment in human myeloma RPMI 8226 NOD/SCID mouse transplantation model. Type of data set: in vivo. The source says:
The efficacy of compound H08 in an animal model of human multiple myeloma was investigated.
NOD/SCID mice, female, 5-6 weeks old, body weight 20±3 g, provided by Shanghai Lingchang Biotechnology Co., Ltd., production certificate number: SCXK (Shanghai) 2013-0018. Number of animals per group: 6. IACUC number: 2013-0007 (Nanmo).
Human myeloma RPMI 8226 cell line was preserved by Li Jia et al., Shanghai Institute of Materia Medica. The cell line was inoculated to the right axillary fossa of NOD/SCID mice, and the amount of cells inoculated was 1×10^7 cells each mouse. After the transplanted tumor was formed, it was used in NOD/SCID mice after 2 passages.
The tumor tissue in the vigorous growth period was cut into 1.5 mm^3, and inoculated subcutaneously in the right axilla of the NOD/SCID mice under aseptic conditions. The diameter of the transplanted tumor of NOD/SCID mice were measured with a vernier caliper and the animals were randomly grouped when the tumor growed up to 100-300 mm^3. The grouping scheme is shown in Table 5, and the solvent control group was given an equal amount of blank solvent. The diameter of the transplanted tumor was measured twice a week during the entire experiment, and the body weight of the mice was weighed as well. The tumor volume (TV) was calculated as: TV=½×a×b^2, wherein a and b represent length and width, respectively. The relative tumor volume (RTV) was calculated based on the measured results and the formula was: RTV=Vt/V0. Wherein V0 is the tumor volume measured before grouping and dosing (d0), and Vt is the tumor volume at each measurement.

The nature of data set [4]: Preliminary metabolic experiments, oral bioavailability in mice. The following applies: mouse, in vivo.
The next data set concerns tumor cell. As to conditions: WO2012152208, background; read-out: IC50 tumor cell proliferation inhibitory activity; cited from earlier work.
In a further data set the target is T1, human HDAC3 (Homo sapiens, UniProt O15379).
T1 construct: made in house
T1 sequence (O15379 whole entry): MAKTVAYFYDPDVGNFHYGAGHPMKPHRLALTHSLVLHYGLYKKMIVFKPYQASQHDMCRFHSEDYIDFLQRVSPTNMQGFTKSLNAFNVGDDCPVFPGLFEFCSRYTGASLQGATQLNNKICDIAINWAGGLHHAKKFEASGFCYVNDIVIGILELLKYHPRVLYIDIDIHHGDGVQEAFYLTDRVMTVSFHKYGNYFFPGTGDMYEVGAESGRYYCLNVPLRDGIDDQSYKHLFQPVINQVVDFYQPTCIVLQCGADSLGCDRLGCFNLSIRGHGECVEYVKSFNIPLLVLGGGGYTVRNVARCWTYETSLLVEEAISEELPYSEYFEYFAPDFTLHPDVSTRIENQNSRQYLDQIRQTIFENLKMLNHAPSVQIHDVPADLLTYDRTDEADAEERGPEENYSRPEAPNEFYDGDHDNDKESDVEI
Briefly: Inhibition activity test of histone deacetylase 3 (fluorescence, Ac-Lys-Tyr-Lys(Ac)-AMC substrate). Type of data set: biochemical. The following applies: mean of 3 experiments.

Another data set deals with T2, human HDAC1 (Homo sapiens, UniProt Q13547).
T2 construct: made in house
T2 sequence (Q13547 whole entry): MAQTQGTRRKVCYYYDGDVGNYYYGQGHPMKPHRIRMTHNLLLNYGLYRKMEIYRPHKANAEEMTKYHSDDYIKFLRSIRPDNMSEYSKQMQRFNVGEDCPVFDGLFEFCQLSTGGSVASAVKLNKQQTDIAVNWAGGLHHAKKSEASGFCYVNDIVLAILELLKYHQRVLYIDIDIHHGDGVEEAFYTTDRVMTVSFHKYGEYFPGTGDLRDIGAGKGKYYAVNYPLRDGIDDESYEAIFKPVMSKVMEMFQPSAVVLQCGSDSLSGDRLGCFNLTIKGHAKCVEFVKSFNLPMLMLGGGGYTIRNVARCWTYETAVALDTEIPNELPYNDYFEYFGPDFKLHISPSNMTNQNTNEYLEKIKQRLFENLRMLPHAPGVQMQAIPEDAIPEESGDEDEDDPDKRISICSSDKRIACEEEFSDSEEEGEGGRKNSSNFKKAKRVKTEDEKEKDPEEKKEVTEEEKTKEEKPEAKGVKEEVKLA
Briefly: Inhibition activity test of histone deacetylase 1 (fluorescence, Ac-Lys-Tyr-Lys(Ac)-AMC substrate). It is filed as biochemical. As to conditions: mean of 3 experiments.

Another data set has as its target T3, human HDAC6 (Homo sapiens, UniProt Q9UBN7).
T3 construct: made in house
T3 sequence (Q9UBN7 1-1215): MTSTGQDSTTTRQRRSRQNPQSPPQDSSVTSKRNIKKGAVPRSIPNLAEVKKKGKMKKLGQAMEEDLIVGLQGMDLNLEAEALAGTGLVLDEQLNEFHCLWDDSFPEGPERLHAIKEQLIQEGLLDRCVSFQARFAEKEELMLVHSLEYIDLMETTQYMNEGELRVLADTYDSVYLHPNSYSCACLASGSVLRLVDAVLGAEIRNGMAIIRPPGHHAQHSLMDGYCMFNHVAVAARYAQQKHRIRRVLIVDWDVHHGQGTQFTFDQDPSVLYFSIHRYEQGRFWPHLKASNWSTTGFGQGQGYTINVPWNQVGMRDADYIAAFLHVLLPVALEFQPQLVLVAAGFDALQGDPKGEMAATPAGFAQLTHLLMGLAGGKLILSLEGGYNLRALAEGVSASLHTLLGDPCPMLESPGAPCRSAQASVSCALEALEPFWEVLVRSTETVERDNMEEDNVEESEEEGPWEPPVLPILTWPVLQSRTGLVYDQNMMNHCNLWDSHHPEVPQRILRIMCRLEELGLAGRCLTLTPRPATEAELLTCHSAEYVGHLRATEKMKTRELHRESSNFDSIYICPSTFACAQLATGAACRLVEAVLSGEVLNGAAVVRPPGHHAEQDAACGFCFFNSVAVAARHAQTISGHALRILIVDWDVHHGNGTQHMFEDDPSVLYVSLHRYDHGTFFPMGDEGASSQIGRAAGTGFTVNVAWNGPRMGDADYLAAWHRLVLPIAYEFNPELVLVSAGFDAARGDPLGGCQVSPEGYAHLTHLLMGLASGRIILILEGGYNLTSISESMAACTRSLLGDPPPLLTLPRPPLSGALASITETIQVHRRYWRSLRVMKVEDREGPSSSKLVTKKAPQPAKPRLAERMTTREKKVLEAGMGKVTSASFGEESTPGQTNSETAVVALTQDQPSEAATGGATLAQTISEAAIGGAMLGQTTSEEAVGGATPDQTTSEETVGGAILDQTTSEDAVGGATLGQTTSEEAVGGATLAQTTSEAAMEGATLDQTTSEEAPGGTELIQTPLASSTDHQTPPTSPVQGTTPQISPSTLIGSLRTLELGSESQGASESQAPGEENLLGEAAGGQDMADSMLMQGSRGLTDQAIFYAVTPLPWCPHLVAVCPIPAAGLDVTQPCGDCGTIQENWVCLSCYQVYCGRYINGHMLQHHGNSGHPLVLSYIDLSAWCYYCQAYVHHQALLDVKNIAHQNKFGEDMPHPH
The experiment in a line: Inhibition activity test of histone deacetylase 6 (fluorescence, Boc-Lys(Ac)-AMC substrate). It is filed as biochemical. As to conditions: mean of 3 experiments.

[5] abbreviates: read-out: IC50 (growth inhibition, RPMI 8226).
[6] abbreviates: 25 mg/kg, p.o., once/day, 3 weeks.
The mark [7] stands for this setting: 25 mg/kg, p.o., once/day, 3 weeks, d21.
[8] abbreviates: 50 mg/kg, p.o., once/day, 3 weeks.
The mark [9] stands for this setting: 50 mg/kg, p.o., once/day, 3 weeks, d21.
Where [10] appears, read: read-out: IC50 (proliferation of RPMI 8226).
Setting [11] is: 100 mg/kg bid, p.o., 3 weeks, d21.
Setting [12] is: 1 mg/kg, i.v., twice/week for 3 weeks.
The mark [13] stands for this setting: 1 mg/kg, i.v., twice/week for 3 weeks, d21.

This is an account of results in US10766889B2, “Aryl-2,2′-tandem bisthiazole compound and preparation method and use thereof” (SHANGHAI INSTITUTE OF MATERIA MEDICA, CHINESE ACADEMY OF …, priority 2016, dated 2020).

Where two headings read alike, the source gives them in different places.

Experimental for human HDAC1: (§1) The inhibitory activity of the example compounds against human histone deacetylases 1, 3 and 6 (i.e., human HDAC1, HDAC3 and HDAC6) was tested.
(§2) Substrates: HDAC1, HDAC 3: Ac-Lys-Tyr-Lys (Ac)-AMC; HDAC6: Boc-lys (Ac)-AMC; all purchased from Shanghai Jill Biochemical Co., Ltd.
(§3) The activity of HDAC1 and HDAC3 was detected using Ac-Lys-Tyr-Lys(Ac)-AMC as substrate, and the activity of HDAC6 was detected using Boc-Lys(Ac)-AMC as substrate, and both were detected by fluorescence detection. […] The initial velocity of the reaction is calculated by detecting the change in the fluorescence signal over time.
(§4) The test compound, enzyme and reaction buffer were well mixed and the substrate was added to start the reaction. […]
(§5) The fluorescence signal intensity at 460 nm was measured, and then the activity percentage (% Activity) of each concentration groups of the sample was calculated. […]
(§6) The logarithm of the concentration was plotted against the percentage of activity, and then the nonlinear regression was used to calculate the fit curve. The value of IC50 was calculated by the software GraphPad Prism 5 formula log(inhibitor) vs. response—Variable slope.
(§7) Each of the above experiments was repeated 3 times, and there were more than 3 replicate wells for each experiment. The average IC50 value of the three experiments was determined as the final indicator of the compound inhibition ability.
Experimental for human HDAC3: as §1, §2, §3, §4, §5, §6, §7
Experimental for human HDAC6: as §1, §2, §3, §4, §5, §6, §7

Consider `C[C@@H](NC(=O)c1nc(-c2ncc(-c3ccccc3)s2)sc1C1CC1)c1ccc(C(=O)NO)cc1` [Compound H11], for which the IC50 in data set [1] (setting [5]) was 326 ± 18 nM.

As to `O=C(NCCC(=O)C(F)(F)F)c1nc(-c2nccs2)sc1C1CC1` [GCJ403], in data set [2], the oral bioavailability is reported as 14.7%.

Take `C[C@H](NC(=O)c1nc(-c2ncc(-c3ccccc3)s2)sc1C1CC1)c1ccc(C(=O)NO)cc1` [Compound H08]: in data set [3] (setting [6]), the “TV d0 (average ± SD)” value amounted to 154 ± 44 mm^3 and the “body weight d0” value was 22.1 ± 1.3 g. Further, in data set [3] (setting [7]), the “RTV (Average ± SD)” value stood at 8.40 ± 1.35, the “TV d21 (average ± SD)” value is reported as 1,279 ± 353 mm^3 and the “body weight d21” value was determined as 23.7 ± 0.8 g. Besides, in data set [3] (setting [8]), the “TV d0 (average ± SD)” value is given as 154 ± 45 mm^3 and the “body weight d0” value is 22.2 ± 1.1 g. Further, in data set [3] (setting [9]), the “RTV (Average ± SD)” value is on record as 5.48 ± 2.99, the “TV d21 (average ± SD)” value was 821 ± 406 mm^3 and the “body weight d21” value worked out at 22.7 ± 0.9 g. The “change in body weight of the mice during the experiment” value in data set [3] (oral 50 mg/kg for three weeks) was “no change in body weight”. Further, the IC50 in data set [1] (setting [5]) was 8 nM. Also, the IC50 in data set [1] (setting [10]) was ~8 nM. In data set [4], this compound gave a bioavailability of 34.4%.

`O=C(CCNC(=O)c1nc(-c2nccs2)sc1C1CC1)NO` [bexanostat, reference compound]: in data set [3] (100 mg/kg bid, p.o., 3 weeks), the “TV d0 (average ± SD)” value is listed as 155 ± 46 mm^3 and the “body weight d0” value was determined as 22.2 ± 1.4 g. In data set [3] (setting [11]), the “RTV (Average ± SD)” value is given as 4.83 ± 0.51, the “TV d21 (average ± SD)” value is on record as 620 ± 87 mm^3 and the “body weight d21” value is recorded as 19.8 ± 1.0 g. Besides, the IC50 with tumor cell is < 400 nM. For the same compound, the IC50 in data set [1] (setting [5]) came to 690 ± 410 nM.

As to `CC(C)C[C@H](NC(=O)[C@H](Cc1ccccc1)NC(=O)c1cnccn1)B(O)O` [PS341, Bortezomib, reference compound], in data set [3] (setting [12]), the “TV d0 (average ± SD)” value was 155 ± 48 mm^3 and the “body weight d0” value is listed as 21.9 ± 1.0 g. Further, in data set [3] (setting [13]), the “RTV (Average ± SD)” value is given as 7.19 ± 3.58, the “T/C relative tumor growth rate” value was determined as 45.27%, the “TV d21 (average ± SD)” value is given as 1,077 ± 538 mm^3 and the “body weight d21” value was found to be 23.3 ± 1.7 g.

On to `C[C@H](NC(=O)c1nc(-c2ncc(-c3ccc(F)cc3)s2)sc1C1CC1)c1ccc(C(=O)NO)cc1` [Compound H09], for which, in data set [1] (setting [5]), the IC50 is 18 ± 6 nM.

As for `C[C@H](NC(=O)c1nc(-c2nc3c(s2)CCCC3)sc1C1CC1)c1ccc(C(=O)NO)cc1` [Compound H07], in data set [1] (setting [5]), the IC50 was determined as 139 ± 19 nM.

`COc1ccc(-c2cnc(-c3nc(C(=O)N[C@@H](C)c4ccc(C(=O)NO)cc4)c(C4CC4)s3)s2)cc1` [Compound H10]: the IC50 in data set [1] (setting [5]) was determined as 12 ± 4 nM.

Consider `C[C@H](NC(=O)c1nc(-c2nccs2)sc1C1CC1)c1ccc(C(=O)NO)cc1` [Compound H02], for which the IC50 in data set [1] (setting [5]) was 28 ± 10 nM.

As for `Cc1cnc(-c2nc(C(=O)N[C@@H](C)c3ccc(C(=O)NO)cc3)c(C3CC3)s2)s1` [Compound H05], in data set [1] (setting [5]), the IC50 was 123 ± 43 nM.

With `CC(NC(=O)c1nc(-c2nccs2)sc1C1CC1)c1ccc(C(=O)NO)cc1` (centres unmarked) [Compound H01], the IC50 in data set [1] (setting [5]) turned out to be 182 ± 15 nM.

As for `O=C(NO)c1ccc(CNC(=O)c2nc(-c3ncc(-c4ccccc4)s3)sc2C2CC2)cc1` [Compound H12], the IC50 on human HDAC3 was 6.15 ± 0.25 nM; against human HDAC1 it was 6.71 ± 0.11 nM; on human HDAC6, 9.78 ± 0.02 nM; in data set [1] (setting [5]) it was 8 nM; in data set [1] (setting [10]) it was ~8 nM.

As for `Cc1csc(-c2nc(C(=O)N[C@@H](C)c3ccc(C(=O)NO)cc3)c(C3CC3)s2)n1` [Compound H06], the IC50 in data set [1] (setting [5]) worked out at 50 ± 22 nM.
